Measured values reported in US5053070A, “Pyrimidine derivatives, preparation processes thereof, herbicide containing the same, and herbicidal compositions containing the same along with other active ingredient” (Mitsui Toatsu Chemicals, Incorporated, priority 1988, dated 1991).
≈ marks a conversion by molar mass, not a printed value.

Experiments:
soybean [1] = assay: Upland soil application test (Test 2), crop injury; assay type: in vivo; conditions: 30 g ai/a, soil spray before emergence, 30 days later
Description: (§1) Resin-made 1/2500-are pots were filled with the soil of an upland field. After they were fertilized, soybean, peanut and cotton were seeded and 2-3 cm soil covering was applied. Seeds of redroot pigweed, common lambsquarters, barnyardgrass, green foxtail, large crabgrass, foxtail meadow and johnsongrass had been uniformly mixed with the soil. They were allowed to germinate in a green house. One day later (before emergence of weeds), a wettable powder prepared from a predetermined amount of each test compound in a similar manner to the method described in Formulation Example 1 was diluted with water and then sprayed evenly at an application rate equal to 10 l per are onto the surface of the soil by means of a pressure-operated ULV (ultra low volume) sprayer. Influence to the crops and weeds were observed 30 days later. The results are shown in Table 3, in which the degree of damages of each test plant and the degree of injury to each crop were determined by comparing the air-dried weights of the test plant and crop with those of the corresponding plant and crop in untreated pots and are shown in accordance with the following standard: […]

cotton [2] = assay: Upland soil application test (Test 2), crop injury; assay type: in vivo; conditions: 30 g ai/a, soil spray before emergence, 30 days later
Description: as §1

peanut [3] = assay: Upland soil application test (Test 2), crop injury; assay type: in vivo; conditions: 30 g ai/a, soil spray before emergence, 30 days later
Description: as §1

[4] = system: ALS (acetolactate syntase); assay: ALS enzyme assay (Test 1); assay type: biochemical, barnyardgrass; conditions: 1,000 ppm (0.5 mg/0.5 ml)
Description: To determine the selectivity in enzyme level between crops and weeds, and ALS enzyme assay was conducted using pea as a representative of broadleaf crops and barnyardgrass as a representative of narrowleaf weeds.
After seeds of pea and barnyardgrass were allowed to germinate at 25° C. for 8-14 days in a dark place, partially-purified suspensions (Suspensions A) of acetolactate syntase were separately obtained from seedlings in accordance with the method described in the literature, Plant Physiology, 75, 827-831.
In a test tube, 0.5 mg of one of test compounds was weighed, followed by the addition of 0.15 ml of a 20 mM K2 HPO4 solution and 0.25 ml of a reaction substrate medium which consisted of 40 mM of K2 HPO4, 40 mM of sodium pyruvate, 1 mM of TPP, 1 mM of MgCl2 and 20 μM of FAD so that 0.4 ml of a reaction solution (Solution B) was prepared. Added to 0.4 ml of Solution B was 0.1 ml of suspension A. After the resultant mixture was shaken for 1 hour in a thermostat water bath controlled at 30° C., 50 μl of 6N sulfuric acid were added to terminate the reaction.
Next, the reaction-terminated liquid mixture was transferred into a thermostat water bath controlled at 60° C. and was heated for 15 minutes. Thereafter, 0.5 ml of a 0.5% creatine solution and 0.5 ml of a 5% alkaline α-naphthol solution were added, and the resultant mixture was maintained at 60° C. for 15 minutes. As a result, the test solution developed a pink-red color. After the above operation, the absorbance of the test solution at 525 nm was measured by a spectrophotometer (Absorbance 1 of Test Compound).
On the other hand, the absorbance (Absorbance 2 of Blank) of a solution obtained by subjecting a portion of Solution B, said portion being free of the test compound, to the above operation and the absorbance (Absorbance 3 of sulfuric acid terminated) of another solution obtained by subjecting another portion of Solution B, said portion containing 50 μl of 6N sulfuric acid as a test compound, were measured at the same time. Based on the values of the respective measurements, the enzyme assay at 1,000 ppm (0.5 mg/0.5 ml) of each compound was determined. [formula]

narrowleaf waterplantain = assay: Petri dish test (Test 6); assay type: in vivo; conditions: 336 h; seeds on filter paper, 25° C., 14 days; read-out: I80 (ppm)
Description: A filter paper was placed in each glass-made Petri dish having a diameter of 9 cm. A compound dissolved in acetone was added in a predetermined amount. The filter paper was then dried in air to remove acetone. Seeds of narrowleaf waterplantain were placed on the filter paper and 10 ml of water were poured into the Petri dish. The seeds were allowed to grow at 25° C. in a bright room. Fourteen days later, the state of growth of narrowleaf water-plantain was observed.
In the table, the degree of damages of the test plant was determined by comparing the state of growth of the plant with that of the plant in an untreated group and is shown in accordance with the following standard: […]

soybean [5] = assay: Upland foliar application test (Test 3), crop injury; assay type: in vivo; conditions: 30 g ai/a, foliar spray at 2-3 leaves, 30th day
Description: (§2) Resin-made 1/10000-are pots were filled with the soil of an upland field. Redroot pigweed, common lambsquarters, foxtail meadow, johnsongrass, barnyardgrass, green foxtail, large crabgrass, soybean, peanut and cotton were separately seeded and were allowed to germinate in a green house. When each plant grew to the stage of 2-3 leaves, an emulsion formulated from a predetermined amount of each test compound in a similar manner to the method described in Formulation Example 11 was diluted with water to a predetermined dilution rate and then sprayed at an application rate equal to 5 l per are onto the foliage of each plant by means of a pressure-operated ULV (ultra low volume) sprayer. Influence to the crops and weeds were observed on the 30th day after the spray of the herbicides. The results are shown in Table 4 in which the degree of damages of each test plant and the degree of injury to each crop are shown in a similar manner to Test 2.

cotton [6] = assay: as above; assay type: in vivo; conditions: 30 g ai/a, foliar spray at 2-3 leaves, 30th day
Description: as §2

peanut [7] = assay: as above; assay type: in vivo; conditions: 30 g ai/a, foliar spray at 2-3 leaves, 30th day
Description: as §2

Sagittaria pygmaea = assay: Treatment of soil under submerged condition, post-emergence (Test 5); assay type: in vivo; conditions: 30 g ai/a granule, 30 days later
Description: (§3) 1/5000-are Wagner pots were filled with soil. Seeds or tubers of barnyardgrass, Monochoria vaginalis, bulrush, Sagittaria pygmaea, Cyperus serroylnus and Eleocharis kuroguwai were seeded or planted under submerged condition. Two pairs of rice seedlings (2-3 leaf stage), which had been reared in advance, were transplanted to each pot and were allowed to grow in a green house. Each pair consisted of two rice seedlings. When the barnyardgrass grew to two-leaf stage, each pot was treated with a granule which had been prepared by processing a predetermined amount of the test composition in accordance with a similar method to the method described in Formulation Example 9. The state of emergence of weeds and the state of injury of rice were observed 30 days later.
(§4) In the table, the degrees of damages of the test plants and the degrees of injury of the rice are shown in a similar manner to Example 2.

barnyardgrass = assay: as above; assay type: in vivo; conditions: 30 g ai/a granule, post-emergence (barnyardgrass two-leaf stage), 30 days later
Description: as §3, §4

bulrush = assay: as above; assay type: in vivo; conditions: 30 g ai/a granule, 30 days later
Description: as §3, §4

rice = assay: Treatment of soil under submerged condition, post-emergence (Test 5), injury; assay type: in vivo; conditions: 30 g ai/a granule, 30 days later
Description: as §3, §4

| SMILES | Injury Soybean (soybean [1]) | Injury Cotton (cotton [2]) | Injury Peanut (peanut [3]) | Inhibitory activity (%) Barnyardgrass [4] | IC80 (narrowleaf waterplantain) | Injury Soybean (soybean [5]) | Injury Cotton (cotton [6]) | Injury Peanut (peanut [7]) | Herbicidal effects Sagittaria Pygmaea (Sagittaria pygmaea) | Herbicidal effects Barnyardgrass (barnyardgrass) | Herbicidal effects Bulrush (bulrush) | Injury Rice (rice) |
| --- | --- | --- | --- | --- | --- | --- | --- | --- | --- | --- | --- | --- |
| COC(=O)c1ccccc1Oc1nc(OC)cc(OC)n1 [A, reference compound] | 5 (0-5 (Death)) | 5 (0-5 (Death)) | 5 (0-5 (Death)) | 73% | 1 µg/mL (≈ 3.45 µM) | 5 (0-5 (Death)) | 5 (0-5 (Death)) | 5 (0-5 (Death)) | 4 (6-10 (Severe damages)) | 5 (0-5 (Death)) | 4 (6-10 (Severe damages)) | 5 (0-5 (Death)) |
| COc1cc(OC)nc(Oc2ccccc2C=O)n1 [B, reference compound] | 5 (0-5 (Death)) | 5 (0-5 (Death)) | 5 (0-5 (Death)) | 98% | 1 µg/mL (≈ 3.84 µM) | 5 (0-5 (Death)) | 5 (0-5 (Death)) | 5 (0-5 (Death)) | 4 (6-10 (Severe damages)) | 5 (0-5 (Death)) | 5 (0-5 (Death)) | 5 (0-5 (Death)) |
| CON=Cc1ccccc1Oc1nc(OC)cc(OC)n1 [Compound No. 1, O-methyl--2-(4,6-dimethoxy-2-pyrimidinyloxy)benzaldoxime] | 0 (91-100 (No damages)) | 0 (91-100 (No damages)) | 0 (91-100 (No damages)) | 58% | 25 µg/mL (≈ 86.4 µM) | 0 (91-100 (No damages)) | 0 (91-100 (No damages)) | 0 (91-100 (No damages)) | 3 (11-40 (Medium damages)) | 4 (6-10 (Severe damages)) | 5 (0-5 (Death)) | 0 (91-100 (No damages)) |
| C=CC(C)ON=Cc1ccccc1Oc1nc(OC)cc(OC)n1 (centres unmarked) [Compound No. 2] | 0 (91-100 (No damages)) | 0 (91-100 (No damages)) | 0 (91-100 (No damages)) | 21% | 100 µg/mL (≈ 304 µM) | 0 (91-100 (No damages)) | 0 (91-100 (No damages)) | 0 (91-100 (No damages)) | 5 (0-5 (Death)) | 5 (0-5 (Death)) | 5 (0-5 (Death)) | 0 (91-100 (No damages)) |
| COc1cc(OC)nc(Oc2ccccc2C=NOC2CCCCC2)n1 [Compound No. 3] | 0 (91-100 (No damages)) | 0 (91-100 (No damages)) | 0 (91-100 (No damages)) | 22% | 100 µg/mL (≈ 280 µM) | 0 (91-100 (No damages)) | 0 (91-100 (No damages)) | 0 (91-100 (No damages)) | 3 (11-40 (Medium damages)) | 3 (11-40 (Medium damages)) | 3 (11-40 (Medium damages)) | 0 (91-100 (No damages)) |
| C=CCON=Cc1ccccc1Oc1nc(OC)cc(OC)n1 [Compound No. 4] | 0 (91-100 (No damages)) | 0 (91-100 (No damages)) | 0 (91-100 (No damages)) | 59% | 100 µg/mL (≈ 317 µM) | 0 (91-100 (No damages)) | 0 (91-100 (No damages)) | 0 (91-100 (No damages)) | 3 (11-40 (Medium damages)) | 5 (0-5 (Death)) | 4 (6-10 (Severe damages)) | 0 (91-100 (No damages)) |
| COc1cc(OC)nc(Oc2ccccc2C=NOCC=C(C)C)n1 [Compound No. 7] | 0 (91-100 (No damages)) | 0 (91-100 (No damages)) | 0 (91-100 (No damages)) | 84% | 17 µg/mL (≈ 49.5 µM) | 0 (91-100 (No damages)) | 0 (91-100 (No damages)) | 0 (91-100 (No damages)) | 3 (11-40 (Medium damages)) | 5 (0-5 (Death)) | 5 (0-5 (Death)) | 0 (91-100 (No damages)) |
| COc1cc(OC)nc(Oc2ccccc2C=NOCC=Cc2ccccc2)n1 [Compound No. 9] | 0 (91-100 (No damages)) | 0 (91-100 (No damages)) | 0 (91-100 (No damages)) | 95% | 2 µg/mL (≈ 5.11 µM) | 0 (91-100 (No damages)) | 0 (91-100 (No damages)) | 0 (91-100 (No damages)) | 5 (0-5 (Death)) | 5 (0-5 (Death)) | 5 (0-5 (Death)) | 0 (91-100 (No damages)) |
| COc1cc(OC)nc(Oc2ccccc2C=NOCc2ccc(Cl)c(Cl)c2)n1 [compound 18] | 0 (91-100 (No damages)) | 0 (91-100 (No damages)) |  | 14% | 67 µg/mL (≈ 154 µM) | 0 (91-100 (No damages)) | 0 (91-100 (No damages)) | 0 (91-100 (No damages)) | 4 (6-10 (Severe damages)) | 3 (11-40 (Medium damages)) | 4 (6-10 (Severe damages)) | 0 (91-100 (No damages)) |
